Measurements reported in patent publication US6596289B1, “Anti-cellulite pantyhose” (priority 1998, dated 2003).

Test: Extraction and measurement of candidate molecules from loaded pantyhose in buffer
Format: physicochemical
Details: for bonding to the fabric: conclusion from data of Table I; for Micrograms per/cm^2 @ 2 hr (amount extracted) / Micrograms per/cm @ 4 hr (amount extracted): swatch of treated fabric immersed in buffer solution; for Micrograms per/cm @ 4 hr (amount extracted): four hours
Experimental: Step 1: Determining UV Max Absorbance nm of Test Substances
Prepare 0.2% aqueous solutions of the substance to be tested, and run a UV/VIS scan on a scanning spectrophotometer. Note the peak absorbance level of the scan. The wave length at which this occurs is the UV Max value for that candidate.
Step 2: Running Standard Curves of Candidate Molecules
Prepare standards of the test substances at the following concentrations: 400 uM, 200 uM, 100 uM, 50 uM and 25 uM. Read at the appropriate wavelength. Plot the absorbance readings vs candidate concentration to check linearity.
Step 3: Loading Pantyhose with Candidate Molecules a. Wash pantyhose two times with water. b. Treat pantyhose with 1% solution of polyethylenimine (PEI) with constant agitation for 30 minutes. c. Wash pantyhose with water. d. Treat pantyhose with 0.2% of the test substance with constant agitation for three hours. e. Wash pantyhose and allow to dry.
Step 4: Extraction and Measurement of Candidate Molecules from Pantyhose Six sections were removed from each pair of hose, two sections from each of the foot, calf and thigh. A two piece, interlocking circular template was used. This template provided a way to obtain consistent sample size and also held the hose sections in position for sample extraction. Each template containing the pantyhose section was placed in 10 ml of buffer for 4 hours. An untreated pair of pantyhose was used as the blank and tested the same as the samples. At the end of two hours, and again at 4 hours, the buffer solution was read at the appropriate wave length using a quartz curette. Results were calculated from the standard curve and reported in micrograms/square centimeter (ug/cm^2).

| Compound | bonding to the fabric | Micrograms per/cm^2 @ 2 hr (amount extracted) | Micrograms per/cm @ 4 hr (amount extracted) |
| --- | --- | --- | --- |
| O=c1c(-c2ccc(O)cc2)coc2cc(O)cc(O)c12 [Genistein, 4′,5,7-trihydroxyisoflavone] | most strongly bonded | 15.0 Micrograms per/cm^2 | 15.1 Micrograms per/cm |
| O=C1O[C@H]([C@@H](O)CO)C(O)=C1O [Ascorbic Acid, ascorbic acid] | bind in adequate degrees | 0.6 Micrograms per/cm^2 | 0.7 Micrograms per/cm |
| O=C(O)CCCC[C@@H]1CCSS1 (racemic) [Lipoic Acid, lipoic acid] | bind in adequate degrees | 1.2 Micrograms per/cm^2 | 1.5 Micrograms per/cm |
